What all share (format): cell-based, feline
In one test the test system is fTAS2R43. The test can be described thus: Fluo-4AM calcium assay, cells transiently expressing fTAS2R43. The protocol:
(§1) On day 0, 60,000 cells per well were plated on poly lysine coated, black 96 well plates with clear bottoms (Costar). The following day the cells were transfected with 150 ng TAS2R38 expression vector, e.g., pcDNA3.1D-FLAGV5His (Invitrogen) along with 45 ng of Ga16 chimera containing the last 44 amino acids of rat gustducin (Gα16gust44) with 0.5 ul Lipofectamine 2000 (Invitrogen) per well. Cells were then incubated 22-44 hours at 37° C. 5% CO2.
Generation of cell lines transiently expressing the other fTAS2Rs disclosed herein was analogous.
(§2) Testing for a functional response of fTAS2R38 to the known hTAS2R38 ligands, PTC and PROP, and of fTAS2R43 to the known hTAS2R43 ligands, aloin, denatonium and saccharine), was determined via automated calcium imaging using the Fluo-4AM (Life Technologies Corporation) Calcium Assay.

For test [1], the system named is fTAS2R38. Briefly: Fluo-4AM calcium assay, cells transiently expressing fTAS2R38. The protocol:
Cell lines that transiently express a desired TAS2R disclosed herein were generated by transfecting the appropriate expression vector, e.g., pcDNA3.1D-FLAGV5His-TAS2R38, constructed as described above in Ex. 2A into cells of a eukaryotic cell line (Life Technologies, Cat# R700-07).
as §1
The expression of fTAS2R38 was evaluated by testing for the presence of a functional response to a known hTAS2R38 ligand (e.g., PTC), determined via automated calcium imaging using a Fluo-4AM (Life Technologies Corporation) Calcium Assay. Fluo-4AM is a fluorescent indicator of intracellular calcium dynamics (change in concentration) and allows monitoring changes in the calcium concentration, particularly an increase in response to receptor activation occurring after agonist exposure.
as §2

The subject of test [2] is fTAS2R38. The test can be described thus: Fluo-4AM calcium assay, stable G[alpha]16-gustducin 44/TAS2R38 cell line. An excerpt:
Fluo-4AM is a fluorescent indicator of intracellular calcium dynamics (change in concentration) and allows monitoring changes in the calcium concentration, particularly an increase in response to receptor activation occurring after agonist exposure.

As for `O=C1c2c(O)cccc2C([C@@H]2O[C@H](CO)[C@@H](O)[C@H](O)[C@H]2O)c2cc(CO)cc(O)c21` (stereo partly shown) [aloin], the activation over baseline with fTAS2R43 (300 μM aloin, transiently transfected cells) is reported as 45%.

In the case of `O=C1NS(=O)(=O)c2ccccc21` [saccharin], in the test on fTAS2R43 (6.7 mM saccharin, transiently transfected cells), the “stimulation of fTAS2R43” value is reported as “not stimulated”.

Turning to `CC[N+](CC)(CC(=O)Nc1c(C)cccc1C)Cc1ccccc1` [denatonium], the activation over baseline in the test with fTAS2R43 (1 mM denatonium, transiently transfected cells) stood at 17%.

Turning to `CCCN(CCC)S(=O)(=O)c1ccc(C(=O)O)cc1` [probenecid, p-(dipropylsulfamoyl)benzoic acid], in the test with fTAS2R38 [1] (1 mM probenecid), the “inhibition of the response to PTC” value is “inhibited”. Also, in the test with fTAS2R43 (1 mM probenecid), the “inhibition of the response to aloin” value is recorded as “inhibited” and the “inhibition of the response to denatonium” value is reported as “inhibited”.

As to `NC(=S)Nc1ccccc1` [PTC, phenylthiocarbamide], the activation over baseline with fTAS2R38 [1] (100 μM PTC, transiently transfected cells) is 81%. Moreover, the stimulation over baseline in the test with fTAS2R38 [2] (100 μM PTC) is 90%.

Turning to `CCCc1cc(=O)[nH]c(=S)[nH]1` [PROP, 6-n-propylthiouracil], the “stimulation of fTAS2R38” value in the test on fTAS2R38 [1] (30 μM PROP, transiently transfected cells) is listed as “not stimulated”. In addition, the “stimulation of stable fTAS2R38 cell line” value in the test with fTAS2R38 [2] (30 μm PROP) is reported as “not stimulated”.

The record behind these values is patent US10174096B2, “Feline bitter taste receptors and methods” (Applied Food Biotechnology, Inc., priority 2013, dated 2019).
